Broadly, the IC50 is the concentration at which inhibition is half-maximal.

The structures appear in SMILES notation. Read-outs that look alike come from different tables or passages of the source.

For nine compounds, IC50 results are on record in patent US20250066386A1, “INHIBITORS OF KRAS” (BIOMEA FUSION, INC., priority 2022, published 2025).

The assay concerns human KRAS G12C mutated cell line MIA PaCa-2. The assay can be described thus: KRas G12C in vitro inhibitory activity: cell proliferation, CellTiter-Glo. The class given is cell-based. The conditions noted are these: Homo sapiens.
From the text: The present example evaluates the ability of compounds provided herein to inhibit proliferation of KRAS mutant cells.
The inhibitory effect on cell proliferation was investigated in the human KRAS G12C mutated cell line MIA PaCa-2 (Yunis et al., 1977, Int. J. Cancer 19(1):128-135; ATCC catalog no. CRL-1420). Cells were maintained in RPMI-1640 medium (ThermoFisher catalog no. 61870036) supplemented with 10% of Heat Inactivated FBS (ThermoFisher catalog no. A31605) and 1% Pen-Strep (ThermoFisher catalog no. 10378016) and cultured at 37° C. in a humidified incubator with 5% CO2. Cells were grown by adhering to culture flasks, and maintained at 70%-80% confluency.
ATP is present in all metabolically active cells and is considered as a marker for viable cells. The number of metabolically active live cells in culture was determined using the CellTiter-Glo kit (Promega catalog no. G7572), an ATP monitoring system based on the production of luminescence by the reaction of ATP with added UltraGlo® recombinant luciferase (Kawano et al., 2016, PLOS One, 8; 11(7):e0158888), according to the supplier's experimental recommendations. The cell proliferation assay was based on a 96 well plate format.
Test compounds were dissolved at 10 mM in DMSO (Sigma catalog no. D8418; purity >99.9%) and stored at −20° C. Eight concentrations of test compound were assessed in duplicate in an individual test occasion in parallel in the selected cell lines. MRTX-849 and AMG-510 were used as reference compounds and tested in duplicate at eight concentrations. 100% of proliferation is represented by the untreated cells (0.2% DMSO).
On the day of the experiment (TO), cells were detached with TrypLE (ThermoFisher catalog no. 12604054), quantified using the cell viability analyser NucleoCounter (Chemometec NC-200) and resuspended in fresh medium at a cell density of about 5000 cells per 200 μL medium. 200 μL of cell suspension were added to each well of a 96 well plate.
Two hours after seeding cells, compounds were added at desired concentrations using a D300e compound dispenser (Life Sciences Tecan D300) with shaking after each compound addition. Assay plates were incubated at 37° C. in a humidified incubator with 5% CO2.
(§1) To measure 3 day inhibition of cell proliferation on day 3 (T3), assay plates were equilibrated to room temperature for approximately 15 min, and the Promega CellTiterGlo® reagent was added at 40 μL/well. Contents were mixed for 5 min on an orbital shaker to induce cell lysis, and then incubated at room temperature for an additional 10 min in the dark to stabilize the luminescent signal. Luminescence was read using a GloMax GM300 plate reader (Promega) using the luminescence for 96 well plate standard protocol.
as §1, with “measure 7” for “measure 3”, “(T3), 150 μL of growth media was removed from each well of the assay plates and replaced with 150 uL fresh growth media, and fresh compounds added using a D300e compound dispenser (Life Sciences Tecan D300) at desired concentrations with shaking between each compound addition. Assay plates were incubated at 37° C. in a humidified incubator with 5% CO2. On day 7 (T7)” for “(T3),”
Data was expressed as % of inhibition compared to the 0.2% DMSO negative no drug control, and is calculated as follows: % inhibition=100−[(RLU sample)×100/(RLU average controls*)], where * indicates the average for 0.2% DMSO.
Results were analyzed by GraphPad (Prism) and IC50 values were calculated by non-linear regression using four parameter-logistic equation. […]
In general terms: In ATP-based viability assays light output follows the ATP content of the culture.

Setting [1] is: MIA PaCa-2, 72 h, 3 day inhibition of cell proliferation, CellTiter-Glo luminescence, read-out: MIA PaCa-2 Day 3 IC50.
[2] abbreviates: MIA PaCa-2, 7 day inhibition of cell proliferation, medium and compound renewed on day 3, CellTiter-Glo luminescence, read-out: MIA PaCa-2 Day 7 IC50.

As to `CCn1c(-c2cccnc2[C@H](C)OC)c2c3cc(ccc31)-c1csc(n1)C[C@H](NC(=O)[C@H](C(C)C)N(C)C(=O)[C@H]1CCN(C/C=C/C(=O)N(C)C)C1)C(=O)N1CCC[C@H](N1)C(=O)OCC(C)(C)C2` (atropisomer, axis not shown) [Compound 111, (3S)-1-((E)-4-(dimethylamino)-4-oxobut-2-en-1-yl)-N-((2S)-1-(((6^3S,4S,Z)-1^1-ethyl-1^2-(2-((S)-1-methoxyethyl)pyridin-3-yl)-10,10-dimethyl-5,7-dioxo-6^1,6^2,6^3,6^4,6^5,6^6-hexahydro-1^1H-8-oxa-2(4,2)-thiazola-1(5,3)-indola-6(1,3)-pyridazinacycloundecaphane-4-yl)amino)-3-methyl-1-oxobutan-2-yl)-N-methylpyrrolidine-3-carboxamide], the IC50 under setting [1] was in the range of 10 to 100 nM.
As to `CCn1c(-c2cccnc2[C@H](C)OC)c2c3cc(ccc31)-c1csc(n1)C[C@H](NC(=O)[C@H](C(C)C)N(C)C(=O)[C@H]1CCN(CC#CC(=O)N(C)C)C1)C(=O)N1CCC[C@H](N1)C(=O)OCC(C)(C)C2` (atropisomer, axis not shown) [Compound 113, (3S)-1-(4-(dimethylamino)-4-oxobut-2-yn-1-yl)-N-((2S)-1-(((6^3S,4S,Z)-1^1-ethyl-1^2-(2-((S)-1-methoxyethyl)pyridin-3-yl)-10,10-dimethyl-5,7-dioxo-6^1,6^2,6^3,6^4,6^5,6^6-hexahydro-1^1H-8-oxa-2(4,2)-thiazola-1(5,3)-indola-6(1,3)-pyridazinacycloundecaphane-4-yl)amino)-3-methyl-1-oxobutan-2-yl)-N-methylpyrrolidine-3-carboxamide], under setting [1], the half-inhibitory concentration (IC50) was below 1 nM.
Still for that read-out and setting: with `CCn1c(-c2cccnc2[C@H](C)OC)c2c3cc(ccc31)-c1cccc(c1)C[C@H](NC(=O)[C@H](C(C)C)N(C)C(=O)[C@H]1CCN(C(=O)C#CCN3CCOCC3)C1)C(=O)N1CCC[C@H](CC(=O)OC(C)(C)C2)C1` [Compound 108, (3S)—N-((2S)-1-(((6^3R,4S)-1^1-ethyl-1^2-(2-((S)-1-methoxyethyl)pyridin-3-yl)-10,10-dimethyl-5,8-dioxo-1^1H-9-oxa-1(5,3)-indola-6(1,3)-piperidina-2(1,3)-benzenacycloundecaphane-4-yl)amino)-3-methyl-1-oxobutan-2-yl)-N-methyl-1-(4-morpholinobut-2-ynoyl)pyrrolidine-3-carboxamide] the figure was above 100 nM; with `CCn1c(-c2cccnc2[C@H](C)OC)c2c3cc(ccc31)-c1cccc(c1)C[C@H](NC(=O)[C@H](C(C)C)N(C)C(=O)[C@H]1CCN(C/C=C/C(=O)N3CC(F)C3)C1)C(=O)N1CCC[C@H](N1)C(=O)OCC(C)(C)C2` (atropisomer, axis not shown) [Compound 110, (3S)—N-((2S)-1-(((6^3S,4S)-1^1-ethyl-1^2-(2-((S)-1-methoxyethyl)pyridin-3-yl)-10,10-dimethyl-5,7-dioxo-6^1,6^2,6^3,6^4,6^5,6^6-hexahydro-1^1H-8-oxa-1(5,3)-indola-6(1,3)-pyridazina-2(1,3)-benzenacycloundecaphane-4-yl)amino)-3-methyl-1-oxobutan-2-yl)-1-((E)-4-(3-fluoroazetidin-1-yl)-4-oxobut-2-en-1-yl)-N-methylpyrrolidine-3-carboxamide], below 1 nM.
Take `C=CC(=O)N1CC[C@H](C(=O)N(C)[C@H](C(=O)N[C@H]2Cc3cccc(c3)-c3ccc4c(c3)c(c(-c3cccnc3[C@H](C)OC)n4CC)CC(C)(C)n3cc(nn3)[C@@H]3CCCN(N3)C2=O)C(C)C)C1` [Compound 104, (3S)-1-acryloyl-N-((2S)-1-(((6^3S,8S,Z)-21-ethyl-2^2-(2-((S)-1-methoxyethyl)pyridin-3-yl)-4,4-dimethyl-7-oxo-6^1,6^2,6^3,6^4,6^5,6^6-hexahydro-2^1H,5^1H-2(5,3)-indola-6(3,1)-pyridazina-5(1,4)-triazola-1(1,3)-benzenacyclononaphane-8-yl)amino)-3-methyl-1-oxobutan-2-yl)-N-methylpyrrolidine-3-carboxamide]: under setting [1], the IC50 was above 100 nM.
As for `CCn1c(-c2cccnc2[C@H](C)OC)c2c3cc(ccc31)-c1cccc(c1)C[C@H](NC(=O)[C@H](C(C)C)N(C)C(=O)[C@H]1CCN(C(=O)C#CCN3CCOCC3)C1)C(=O)N1CCC[C@@H](CC(=O)OC(C)(C)C2)C1` [Compound 107], the IC50 under setting [2] is above 100 nM.
Regarding `CCn1c(-c2cccnc2[C@H](C)OC)c2c3cc(ccc31)-c1csc(n1)C[C@H](NC(=O)[C@H](C(C)C)N(C)C(=O)[C@H]1CCN(CC#CC(=O)N3CC(F)C3)C1)C(=O)N1CCC[C@H](N1)C(=O)OCC(C)(C)C2` (atropisomer, axis not shown) [Compound 118, (3S)—N-((2S)-1-(((6^3S,4S,Z)-1^1-ethyl-1^2-(2-((S)-1-methoxyethyl)pyridin-3-yl)-10,10-dimethyl-5,7-dioxo-6^1,6^2,6^3,6^4,6^5,6^6-hexahydro-1^1H-8-oxa-2(4,2)-thiazola-1(5,3)-indola-6(1,3)-pyridazinacycloundecaphane-4-yl)amino)-3-methyl-1-oxobutan-2-yl)-1-(4-(3-fluoroazetidin-1-yl)-4-oxobut-2-yn-1-yl)-N-methylpyrrolidine-3-carboxamide], the IC50 was above 100 nM under setting [1] and 1 to 10 nM under setting [2].
In the case of `CCn1c(-c2cccnc2[C@H](C)OC)c2c3cc(ccc31)-c1cccc(c1)C[C@H](NC(=O)[C@H](C(C)C)N(C)C(=O)[C@H]1CCN(C(=O)C#CCN(C)C)C1)C(=O)N1CC[C@@H](C1)C(=O)OCC(C)(C)C2` (atropisomer, axis not shown) [Compound 102, (3S)-1-(4-(dimethylamino)but-2-ynoyl)-N-((2S)-1-(((6^3S,4S)-1^1-ethyl-1^2-(2-((S)-1-methoxyethyl)pyridin-3-yl)-10,10-dimethyl-5,7-dioxo-1^1H-8-oxa-1(5,3)-indola-6(1,3)-pyrrolidina-2(1,3)-benzenacycloundecaphane-4-yl)amino)-3-methyl-1-oxobutan-2-yl)-N-methylpyrrolidine-3-carboxamide], the IC50 under setting [1] was above 100 nM.
On to `CCn1c(-c2cccnc2[C@H](C)OC)c2c3cc(ccc31)-c1csc(n1)C[C@H](NC(=O)[C@H](C(C)C)N(C)C(=O)[C@H]1CCN(CC#CC(=O)N3CCC3)C1)C(=O)N1CCC[C@H](N1)C(=O)OCC(C)(C)C2` (atropisomer, axis not shown) [Compound 116, (3S)-1-(4-(azetidin-1-yl)-4-oxobut-2-yn-1-yl)-N-((2S)-1-(((6^3S,4S,Z)-1^1-ethyl-1^2-(2-((S)-1-methoxyethyl)pyridin-3-yl)-10,10-dimethyl-5,7-dioxo-6^1,6^2,6^3,6^4,6^5,6^6-hexahydro-1^1H-8-oxa-2(4,2)-thiazola-1(5,3)-indola-6(1,3)-pyridazinacycloundecaphane-4-yl)amino)-3-methyl-1-oxobutan-2-yl)-N-methylpyrrolidine-3-carboxamide], for which the IC50 was above 100 nM under setting [1] and 1 to 10 nM under setting [2].
